What was measured:
anti-BCMA CAR+ T cells [1] = assay: Expansion of EGFRt+ cells after BCMA-conjugated bead stimulation; assay type: cell-based, human; conditions: 5 μM lenalidomide
Method: (§1) Cryofrozen anti-BCMA CAR T cells, produced substantially as described in Example 2 and formulated at a 1:1 ratio of CD4+ and CD8+ T cells, were thawed. Unless otherwise indicated, beads (diameter about 4.5 μm) from a 5 μg/ml or 50 μg/ml BCMA-conjugated bead composition, generated as described in Example 1, were added to the wells at a ratio of T cells to beads of 1:2 in the presence or absence of 5 μM lenalidomide. Cells were incubated up to 14 days and analyzed at various time points for cytokine secretion, cell expansion by flow cytometry for the EGFRt surrogate marker, and for cytolytic activity.
Four days and seven days after addition of BCMA-conjugated beads, the incubated cells were stained with CD4 or CD8 and with an anti-EGFR antibody to determine the percentage of cells positive for EGFRt as a surrogate for CAR+ T cells. At the time of plating, 26% of the CD4+ cells expressed anti-BCMA CAR and 39% of the CD8+ cells expressed anti-BCMA CAR as determined by staining with BCMA-Fc. The percent of EGFRt+CD4+ T cells increased from about 26% at the initiation of the incubation to greater than 40% by day 4 (FIG. 9J) and greater than 60% by day 7 (FIG. 9K) when the cells were incubated in the presence of beads from a 50 μg/mL BCMA-conjugated bead composition. […]

anti-BCMA CAR+ T cells [2] = assay: Surface markers and proliferation at different T cell:bead ratios with or without lenalidomide; assay type: cell-based, human
Method: In another experiment, approximately 1.5×10^6 CAR+ T cells, prepared as described above, were added to wells of a 12-well plate and were incubated with beads from a 200 μg BCMA-conjugated bead composition at a ratio of CAR+ T cell to BCMA-conjugated bead of 1:0.3, 1:1 or 1:3 (approximately 0.5×10^6, 1.5×10^6, and 4.5×10^6 beads per well, respectively). As controls, 5 μg/mL anti-CD3 antibody was coated to wells (sub-optimal concentration for stimulation) or cells were seeded in the absence of any agent (no stimulation control). Each condition was incubated in the presence or absence of 5 μM lenalidomide. […] […] There also was a slight increase in PD-1 surface expression on CD8+ cells when stimulated with BCMA-conjugated beads at the higher BCMA bead concentration provided at the ratio of 1:3 CAR+ T cells to beads. The results are consistent with a finding that the BCMA concentration present during the incubation can differentially modulate surface marker expression on the CAR+ T cells.

RPMI-8226 target cells [3] = assay: Cytolytic activity and IFN-gamma against target cells after bead incubation; assay type: cell-based
Method: Cytolytic activity of CAR+ T cells after incubation with BCMA-conjugated beads was assessed by incubation with the BCMA-expressing target cell line RPMI-8226, which is a BCMA+ multiple myeloma cell line. After seven days of incubation of anti-BCMA CAR+ T cells with BCMA-conjugated beads (5 μg/ml or 50 μg/ml) in the presence or absence of lenalidomide, the beads were removed from the cultures and the cells were plated with the RPMI-8226 target cells at a ratio of effector cells to target cells of 3:1 or 1:1 in the further presence or absence of 5 μM lenalidomide. To perform the cytolytic assay, the target RPMI-8226 cells were labeled with NucLight Red (NLR) to permit tracking of target cells by microscopy. Cytolytic activity was assessed by measuring the loss of viable target cells over a period of four days, as determined by red fluorescent signal (using the INCUCYTE® Live Cell Analysis System, Essen Bioscience). The number of viable cells was normalized to cells at day 0 prior to incubation with the RPMI-8226 target cells.
In a further exemplary study, anti-BCMA CAR+ T cells were untreated, or were incubated for 24 hours or for seven days with beads (diameter about 4.5 μm) from a 50 μg/mL BCMA-conjugated bead composition generated as described in Example 1 at a ratio of beads to cells of 1:1. The anti-BCMA CAR T+ cells were removed from the cultures and incubated with RPMI-8226 target cells at a 0.3:1 or 1:1 effector cell to target cell ratio. To assess cytokine response to the target cells after incubation with BCMA-conjugated beads, IFN gamma levels were measured in the supernatant.

anti-BCMA CAR+ T cells [4] = assay: Cell count and CTV proliferation after BCMA-conjugated bead stimulation; assay type: cell-based, human; conditions: 5 μM lenalidomide
Method: as §1
Total cell count, monitored at day 4 (FIG. 9G) and day 7 (FIG. 9H), was increased following stimulation of anti-BCMA CAR+ T cells with beads from a 50 μg/mL BCMA-conjugated bead composition, but not 5 μg/mL BCMA-conjugated bead composition, compared to the cells present at the time of initiation of the incubation (dashed line).
To further assess proliferation, the cells containing anti-BCMA CAR-expressing T cells were labeled with the proliferation marker dye CELLTRACE VIOLET (CTV; ThermoFisher Scientific, Waltham Mass.) in accordance with the manufacturer's protocol prior to incubation with the BCMA-conjugated beads. Proliferation was assessed by dye dilution using flow cytometry on cells that were stimulated with beads from the 50 μg/mL BCMA-conjugated bead composition.

anti-BCMA CAR T cells [5] = assay: Cytokine production after 24 hours BCMA bead stimulation with or without lenalidomide; assay type: cell-based, human
Method: In another study, recombinant human BCMA-conjugated beads were used to stimulate CAR T cells at various concentrations to titrate the magnitude of stimulation, either low ([…]), medium ([…]), and high (200 μg/mL) stimulation. […] Cells were stimulated with BCMA conjugated beads for 24 hours in the presence of 0.1 μM or 1.0 μM lenalidomide, or vehicle control. A protein transport inhibitor was added in the final hours of incubation, and cells were stained for intracellular IL-2, IFN-γ, and TNF-α.

RPMI-8226 = assay: Serial restimulation with BCMA-conjugated beads, then cytolytic activity; assay type: cell-based
Method: Anti-BCMA CAR T cell compositions were generated from three different donors, each containing T cells expressing the same anti-BCMA CAR, thawed, and were incubated for seven days with beads (diameter about 4.5 μm) from a 50 μg/mL BCMA-conjugated bead composition generated as described in Example 1 at a 1:1 ratio of beads to cells. The incubation was carried out in the presence of 5 μM lenalidomide or in the absence of lenalidomide (vehicle control). Cells were harvested after 7 days and replated for three further rounds up to 28 days, each round involving resetting to initial seeding density and incubating for an additional 7 days in the presence of the same concentration of lenalidomide.
At each reset after the pretreatment, cytolytic activity was assessed by incubation with the BCMA-expressing target cell line RPMI-8226 (labeled with NucLight Red (NLR)) at an effector to target cell (E:T) ratio of 1:1 in the further presence of or absence of lenalidomide. Cytolytic activity was assessed by measuring the loss of viable target cells over a period of up to 80-150 hours, as determined by red fluorescent signal (using the IncuCyte® Live Cell Analysis System, Essen Bioscience). Cells from each condition were plated in triplicate. The % cell killing compared to vehicle only control (set at 100%) was determined.

Anti-BCMA CAR-T cells = assay: Phenotype of anti-BCMA CAR T cells stimulated 7 days on BCMA beads with or without lenalidomide; assay type: cell-based, human
Method: (§2) Anti-BCMA CAR-T cells, generated from samples from representative healthy donors or multiple myeloma patient derived material, and cultured with 50 μg/mL BCMA-Fc conjugated beads (generated as described in Example 1) at a ratio of 1:1 bead:CAR+ T cell for 7 days, in the presence of […] lenalidomide or a vehicle control. Expression of CD25, PD-1, Tim3 and Lag3 on CAR T cells (using an antibody for surrogate CAR marker) cultured under the different conditions then was assessed by flow cytometry.

[6] = system: Healthy donor-or patient-derived CART cells; assay: Cytokine production on BCMA or BCMA/PD-L1 conjugated beads; assay type: cell-based, human; conditions: 1 μM, in the presence of PD-L1; versus vehicle
Method: In another study, cells were cultured in the presence of BCMA beads generated as described in Example 1, with or without additional conjugation of human recombinant PD-L1-Fc. Healthy donor-or patient-derived CART cells were stimulated in the presence of BCMA-conjugated beads or BCMA/PD-L1 conjugated beads for 24 hours in the presence of 1 μM lenalidomide. Cytokine production was measured in the supernatant. […] The results were consistent with a conclusion that anti-BCMA CAR-T cytokine production following incubation with BCMA-conjugated beads was increased by lenalidomide in the presence of PD-L1-mediated inhibition.

RPMI-8226 target cells [7] = assay: Cytolytic activity and cytokine production of bead-prestimulated CAR-T cells on target cells; assay type: cell-based
Method: as §2
Specifically, for pretreated cells in which pretreatment had been conducted in the presence of lenalidomide, the cells were cultured with the target cells in the presence of lenalidomide; likewise, for pretreated cells in which pretreatment had been conducted in the presence of vehicle, cells were cultured with the target cells in the presence of vehicle. Following the co-culture, cytolytic activity was assessed by measuring the loss of viable target cells over a period of seven days, as determined by red fluorescent signal. Percentage killing was normalized to anti-BCMA CAR T cells prestimulated on beads in the presence of vehicle. Cytokine production was assessed by ELISA from supernatant following culture with target cells for 24 hours. Experiments were performed twice in 3 donors. […]

anti-BCMA CAR T cells [8] = assay: Cytokines in culture supernatant 24 hours after addition of BCMA-conjugated beads; assay type: cell-based, human
Method: as §1
Twenty four hours after addition of BCMA-conjugated beads, the presence of TNF-α, IFNγ, and IL-2 in culture supernatants was assessed.
In a further exemplary study, two different anti-BCMA CAR T cell compositions were generated from different donors, each containing T cells expressing the same anti-BCMA CAR. The cells were thawed and incubated with beads (diameter about 4.5 μm) from a 5 μg/mL or 200 μg/mL BCMA-conjugated bead composition generated as described in Example 1. The incubation was carried out at a ratio of T cells to beads of 1:1 in the presence or absence of 1 μM or 5 μM lenalidomide. Twenty four hours after addition of BCMA-conjugated beads, IL-2 production by the anti-BCMA CAR+ T cells was assessed in culture supernatants.

[9] = medium stimulation (50 μg BCMA beads), 24 hours, 1 μM

## Nc1cccc2c1CN(C1CCC(=O)NC1=O)C2=O (stereo not shown) [lenalidomide]
anti-BCMA CAR+ T cells [1]
  extent of CAR+ T cell expansion: did not substantially impact the extent of CAR+ T cell expansion
anti-BCMA CAR+ T cells [2]; 5 μM, three days with 200 μg BCMA beads at 1:1, versus vehicle
  proliferative capacity of T cells (CTV): increased the proliferative capacity of T cells
anti-BCMA CAR+ T cells [2]; lenalidomide present during BCMA bead or anti-CD3 stimulation
  surface expression of CD25 in CD4+ and CD8+ T cells: further increased the extent of surface expression of CD25
RPMI-8226 target cells [3]; RPMI 8226 cells cultured in the presence of lenalidomide, no T cells
  target cell viability: did not directly influence target cell viability
RPMI-8226 target cells [3]; lenalidomide during the seven day bead incubation prior to the killing assay
  cytolytic activity of the CAR+ T cells: increased cytolytic activity of the CAR+ T cells
RPMI-8226 target cells [3]; lenalidomide present during the cell killing assay
  killing activity: did not substantially affect killing activity
anti-BCMA CAR+ T cells [4]; 50 ug beads, day 7
  proliferation (cell count): small increase in proliferation
anti-BCMA CAR+ T cells [4]; 50 μg/mL beads, day 4 but not day 7
  proliferation as assessed by CTV dilution: slight delay in proliferation
anti-BCMA CAR T cells [5]; 0.1 μM or 1.0 μM, all stimulation levels, CD4+ and CD8+
  percentage of IFN-γ+ and TNF-α+ intracellular staining: increased the percentage
anti-BCMA CAR T cells [5]; 5-μg stimulation
  percentage of IL-2+ CAR+ T cells: increasing the percentage
anti-BCMA CAR T cells [5]; 50-μg and 200-μg stimulation
  percentage of IL-2+ CAR+ T cells: decreasing the percentage
anti-BCMA CAR T cells [5]; absence of stimulation
  CAR T cytokine production: had no effect on CAR T cytokine production
anti-BCMA CAR T cells [5]; [9]
  increase in IL-2 concentration compared with vehicle control: 200%
  increase in TNF-α concentration compared with vehicle control: 200%
anti-BCMA CAR T cells [5]; medium stimulation, 24 hours
  IFN-γ concentration compared with vehicle control: donor-dependent increases
RPMI-8226; further donor (FIG. 10B), all time points
  killing efficacy: increased killing efficacy
RPMI-8226; preincubated with 5 μM lenalidomide 7 or 14 days, exemplary donor
  cytolytic activity: exhibited greater cytolytic activity
RPMI-8226; preincubated with lenalidomide 14 or 21 days compared to day 7
  killing efficacy: overall decrease in killing efficacy
Anti-BCMA CAR-T cells; 1 μM, 7 days on 50 μg/mL BCMA beads, 3 healthy donors
  CAR+ viability: significantly increased CAR+ viability
Anti-BCMA CAR-T cells; 1 μM, 7 days on BCMA beads
  surface CD25 expression (MFI): increasing CD25 expression
  surface PD-1 expression (MFI): reduced PD-1 expression
  total cell count: did not alter the total cell count
Anti-BCMA CAR-T cells; CD4+ and CD8+ CAR+ populations
  percentage positive for Lag3 expression: increased
Anti-BCMA CAR-T cells; CD4+ population
  percentage of PD-1+ cells: decrease in the percentage of PD-1+ cells
Anti-BCMA CAR-T cells; CD8+ population
  surface expression of Tim3: increased the surface expression of Tim3
Anti-BCMA CAR-T cells; vehicle- versus lenalidomide-treated
  percentage CAR+: no significant differences
[6]
  secreted cytokine levels: potentiated secreted cytokine levels
RPMI-8226 target cells [7]; 1 μM lenalidomide during prestimulation versus vehicle
  cytokine production: trend toward increased cytokine production
RPMI-8226 target cells [7]; 1 μM lenalidomide during the prestimulation period
  cytolytic function: preserved cytolytic function
anti-BCMA CAR T cells [8]; 1 μM or 5 μM, 200 or 5 μg/mL beads
  cytokine (IL-2) production: increased cytokine production in the presence of both the high and low antigen stimulation
anti-BCMA CAR T cells [8]; 5 μM lenalidomide, 24 hours
  BCMA-induced CAR+ T cell cytokine production: increased BCMA-induced CAR+ T cell cytokine production

Source: patent US20230242654A1, “REAGENTS FOR EXPANDING CELLS EXPRESSING RECOMBINANT RECEPTORS” (Juno Therapeutics, Inc., priority 2017, published 2023)
